{
  "source": "patent US5849724A",
  "about": "“Microorganism of genus chrysosporium for use in preparing farnesyl transferase inhibitors” (Rhone-Poulenc Rorer S.A., priority 1995, dated 1998)",
  "target": "T1, farnesyl transferase (Homo sapiens, UniProt P49354+P49356)",
  "T1 construct": "This enzyme has been partially purified from human THP1 cells; endogenous in cells; host or cells: human THP1 cells (enzyme partially purified from them)",
  "assay": "test for inhibition of farnesyl transferase by scintillation proximity assay (SPA)",
  "type": "biochemical",
  "settings": "partially purified Ftase from human THP1 cells, 60 minutes at 37° C., BLB and 3H FPP substrates",
  "protocol": "The principle of the SPA (Scintillation Proximity Assay) technology is applied to the assay of the enzymatic activity of farnesyl transferase. According to this method, the farnesyl transferase inhibiting activity is determined by the quantity of [^3 H] farnesyl transferred from [^3 H] farnesyl pyrophosphate, ^3 H FPP, to a biotinylated acceptor substrate.\nMethod used to detect the active metabolites: test for inhibition of farnesyl transferase by scintillation proximity assay (SPA)\nThe donor substrate, farnesyl pyrophosphate, is labelled with tritium ^3 H FPP. […] The radiolabelled peptide excites the beads which then emit light which is quantified in a solid-liquid scintillation counter (Topcount®, Packard).\nThe plate is incubated for 60 minutes at 37° C. and the reaction is stopped by adding 150 μl of stopping reagent containing the SPA beads. The plate is sealed with an adhesive film and left for 30 minutes at room temperature in order to reach equilibrium, and then counted in the Topcount counter. […] The IC50 values of the compounds are calculated by nonlinear regression.",
  "data": [
    {"smiles": "CC(C)C1CCC2C1(C)CCC1(C)C3=CCC4C(C)(C(=O)O)C(O)C(O)C(O)C4(COP(=O)(O)O)C3CCC21C", "note": "(stereo not shown) [Example 1]", "values": [
      {"measurement": "IC50", "result": 830, "unit": "nM"}
    ]}
  ]
}
